Reference: patent US20250255866A1, “USES OF FATTY ACID AMIDE HYDROLASE INHIBITORS IN TREATMENT OF TRAUMA RELATED PSYCHIATRIC DISORDERS” (Neuritek Therapeutics Ltd., priority 2020, published 2025)

Assays:
[1] = tested on: FAAH; assay: Changes in plasma fatty acid amide (FAA) levels in response to the FAAH inhibitor; format: in vivo, human; conditions: 450 mg/day, plasma drug level 200 nm/ml to about 600 ng/ml, predicted maximal change
Protocol: In other embodiments, upon achieving trough steady state plasma, plasma FAA levels will be minimal. Conversely, at the 450 mg/day dose, changes in plasma FAA levels in response to 3-{[5-(2-Fluorophenyl)pyridin-2-yl]oxy}-N-(pyridazin-3-yl)azetidine-1-carboxamide ranging from 200 nm/ml to about 600 ng/ml are predicted to be maximal; in the order of 3, 4, 8 and 5 ng/mL for AEA, LEA, OEA and PEA, respectively.

[2] = tested on: adults with PTSD; assay: Exploratory behavioral analyses 1: effect relative to placebo on PTSD symptoms; format: in vivo, human
Protocol: (a). To evaluate the effect of daily 450 mg of 3-{[5-(2-Fluorophenyl)pyridin-2-yl]oxy}-N-(pyridazin-3-yl)azetidine-1-carboxamide relative to placebo in mitigating PTSD symptoms in adults with PTSD. Patient will be receiving a 450 mg dose of the study agent.
(b). To evaluate the effect of 450 mg of the study drug relative to placebo in mitigating PTSD symptoms that comprise a contemporary, five-factor phenotypic model of this disorder, as well as secondary “intermediate phenotype” measures of anxiety sensitivity and somatic anxiety.

## O=C(Nc1cccnn1)N1CC(Oc2ccc(-c3ccccc3F)cn2)C1 [3-{[5-(2-Fluorophenyl)pyridin-2-yl]oxy}-N-(pyridazin-3-yl)azetidine-1-carboxamide]
[1]
  change in plasma FAA level: AEA: ~3 ng/mL
  change in plasma FAA level: LEA: ~4 ng/mL
  change in plasma FAA level: OEA: ~8 ng/mL
  change in plasma FAA level: PEA: ~5 ng/mL
[2]; 450 mg daily dose
  PTSD symptoms of the five-factor phenotypic model, anxiety sensitivity and somatic anxiety, relative to placebo: most pronounced effect on reducing anxious arousal
[2]; daily 450 mg
  overall severity of PTSD symptoms relative to placebo: reduction in overall severity of PTSD symptoms
